Paper PMC3793924, “Targeting Androgen Receptor/Src Complex Impairs the Aggressive Phenotype of Human Fibrosarcoma Cells” (PLoS ONE, 2013)

Columns and labels:
Assay type in all cases: cell-based, human
[1] = test system: HT1080 cells; assay: BrdU incorporation (DNA synthesis) in quiescent HT1080 cells; conditions: EGF 100 ng/ml, 18 h; for Inhibition of EGF-induced BrdU incorporation (DNA synthesis): Casodex 10 μM, S1 and Ss peptides 1 nM, BrdU by IF, % of total nuclei
Procedure: Human fibrosarcoma HT1080 cells were used. In A, quiescent cells on coverslips were left un-stimulated or stimulated for 18 h with the indicated compounds. […] After in vivo pulse with BrdU (100 μM; Sigma), BrdU incorporation was analyzed by IF and expressed as % of total nuclei. Several independent experiments were performed in duplicate and the results were derived from at least 400 scored cells for each coverslip. Mean and SEM are shown. n represents the number of experiments. […] In B, xenografts were established in nude male mice as described in Methods. On alternate days, animals were intra-peritoneally injected with vehicle alone (vehicle), or the pure androgen antagonist Casodex (Cx: 0.1 μg/mice; 4µg/Kg body weight), or DHT (DHT: 0,1 μg/mice; 3 μg/Kg body weight) alone. Volumes of HT1080 cell xenografts were measured at the indicated times in two dimensions by a caliper and expressed as tumor mass (mm^3). Mean and SEM are shown. n represents the number of experiments.
Quiescent HT1080 cells were used. […] Casodex (at 10 μM) was used for comparison with the S1 peptide. Upper section in A, Western blot of HT1080 cell lysates with anti-EGFR antibody. […] In B, lysates were immune-precipitated with the anti-Src MAb and Src activity in immune complexes was assayed using acidified enolase, as a substrate. In C, cells on coverslips were left untreated or treated for 18 h with the indicated compounds. After in vivo pulse with BrdU (100 μM), BrdU incorporation was analyzed by IF and expressed as % of total nuclei. Several independent experiments were performed in duplicate and the results were obtained from at least 500 scored cells for each coverslip. Mean and SEM are shown. n represents the number of experiments.

[2] = test system: HT1080 cells; assay: Wound scratch assay in HT1080 cells; conditions: quiescent HT1080 cells, 6 h, EGF 100 ng/ml; for Effect on EGF-induced wound closure (migration): Casodex 10 μM, S1 and Ss peptides 10 nM
[3] = test system: LNCaP cells; assay: BrdU incorporation in LNCaP cells; conditions: quiescent LNCaP cells, EGF 100 ng/ml, 18 h; for Inhibition of EGF-induced BrdU incorporation: Casodex 10 μM, S1 and Ss peptides 10 nM
Procedure: (§1) Quiescent human prostate cancer-derived LNCaP cells were used. In A, quiescent cells on coverslips were left unstimulated or stimulated for 18 h with the indicated compounds. […] After in vivo pulse with BrdU (100 μM), BrdU incorporation was analyzed by IF and expressed as % of total cells. Several independent experiments were performed in duplicate and the results were derived from at least 600 scored cells for each coverslip. Mean and SEM are shown. n represents the number of experiments. In B, the cells were left untreated or treated for 6 h with the indicated compounds. […] Cells were allowed to migrate in collagen pre-coated Trans-well filters. Migrated cells were stained and counted as reported in Methods. Results were derived from several independent experiments, each performed in duplicate. Data are expressed as relative increase. Mean and SEM are shown. n represents the number of experiments. Quiescent human breast cancer-derived MCF-7 cells were used. In C, quiescent cells on coverslips were left un-stimulated or stimulated for 18 h with the indicated compounds. […] After in vivo pulse with BrdU (100 μM), BrdU incorporation was analyzed by IF and expressed as % of total cells. Several independent experiments were performed in duplicate and the results were derived from at least 500 scored cells for each coverslip. Mean and SEM are shown. n represents the number of experiments. In D, the cells were left untreated or treated for 6 h with the indicated compounds. […] Cells were allowed to migrate in collagen-pre-coated Trans-well filters. Migrated cells were stained and counted as reported in Methods. Results were derived from several independent experiments, each performed in duplicate. Data are expressed as relative increase. Mean and SEM are shown. n represents the number of experiments.

[4] = test system: MCF-7 cells; assay: BrdU incorporation in MCF-7 cells; conditions: quiescent MCF-7 cells, EGF 100 ng/ml, 18 h; for Inhibition of EGF-induced BrdU incorporation: Casodex 10 μM, S1 and Ss peptides 1nM
Procedure: as §1

[5] = test system: LNCaP cells; assay: Trans-well migration of LNCaP cells; conditions: quiescent LNCaP cells, 6 h, EGF 100 ng/ml; for Inhibition of EGF-induced motility (transmigration): Casodex 10 μM, S1 and Ss peptides 1 nM
[6] = test system: HCT116 cells; assay: BrdU incorporation in HCT116 cells; conditions: quiescent HCT116 cells, EGF 100 ng/ml, 18 h; for Inhibition of EGF-induced BrdU incorporation: Casodex 10 μM, S1 and Ss peptides 10 nM
Procedure: Quiescent human colon cancer-derived HCT116 cells were used. In A, cells on coverslips were left un-stimulated or stimulated for 18 h with the indicated compounds. […] After in vivo pulse with BrdU (100 μM), BrdU incorporation was analyzed by IF and expressed as % of total cells. Several independent experiments were performed in duplicate and the results were derived from at least 400 scored cells for each coverslip. Mean and SEM are shown. n represents the number of experiments. In B, the cells were left untreated or treated for 6 h with the indicated compounds. […] Cells were allowed to migrate in collagen-pre-coated Trans-well filters. Migrated cells were stained and counted as reported in Methods. Results were derived from several independent experiments, each performed in duplicate. Data are expressed as relative increase. Mean and SEM are shown. n represents the number of experiments. Quiescent human pancreatic cancer-derived KP-2 cells were used. In C, cells on coverslips were left unstimulated or stimulated for 18 h with the indicated compounds. […] After in vivo pulse with BrdU (100 μM), BrdU incorporation was analyzed by IF and expressed as % of total cells. Several independent experiments were performed in duplicate and the results were derived from at least 400 scored cells for each coverslip. Mean and SEM are shown. n represents the number of experiments. In D, the cells were left untreated or treated for 6 h with the indicated compounds. […] Cells were allowed to migrate in collagen-pre-coated Trans-well filters. Migrated cells were stained and counted as reported in Methods. Results were derived from several independent experiments, each performed in duplicate. Data are expressed as relative increase. Mean and SEM are shown. n represents the number of experiments. […] After in vivo labeling with 100 μM BrdU (Sigma), DNA synthesis was analyzed by immunofluorescence, using diluted (1:50 in PBS) mouse monoclonal anti-BrdU antibody (clone BU-1, from GE Healthcare).

Molecule	Inhibition of EGF-induced BrdU incorporation (DNA synthesis) [1]	Effect on EGF-induced wound closure (migration) [2]	Inhibition of EGF-induced BrdU incorporation [3]	Inhibition of EGF-induced BrdU incorporation [4]	Inhibition of EGF-induced motility (transmigration) [5]	Inhibition of EGF-induced BrdU incorporation [6]	BrdU incorporation (DNA synthesis) upon stimulation with the compound alone ([1]; R1881 and DHT 10 nM)	Wound closure upon stimulation [2]	BrdU incorporation upon stimulation [3]	BrdU incorporation upon stimulation [4]	Motility in transmigration assay upon stimulation [5]	BrdU incorporation upon stimulation [6]
CC(O)(CS(=O)(=O)c1ccc(F)cc1)C(=O)Nc1ccc(C#N)c(C(F)(F)F)c1 (centres unmarked) [Casodex]	inhibits the EGF-induced BrdU incorporation	Only few cells migrate	inhibits EGF-induced BrdU incorporation	inhibits EGF-induced BrdU incorporation	inhibited to a similar extent	similarly inhibit these EGF-elicited responses						
EGF: epidermal growth factor (Roche), used as stimulus at 100 ng/ml							significantly incorporate BrdU	almost complete wound closure	robustly incorporate BrdU	robustly incorporate BrdU	significantly increases the motility	robustly increases BrdU incorporation
Ac-PPPHPHARIK-NH2 [S1 peptide]	abolishes the mitogenic response elicited by EGF	consistently inhibits the EGF-induced effect	abolishes the mitogenic response elicited by EGF	abolishes the mitogenic response elicited by EGF	inhibited to a similar extent	similarly inhibit these EGF-elicited responses						
Ac-HPKPARIPHP-NH2 [Ss peptide]	only slightly affects	much weaker inhibitory effect	only slightly affects DNA synthesis	only slightly affects DNA synthesis		does not interfere with the EGF-elicited responses						
